Patent US20230274811A1, “METHODS OF MAKING PROSTATE CANCER TREATMENT DECISIONS” (Progenics Pharmaceuticals, Inc., priority 2020, published 2023)

Test system: biochemically recurrent prostate cancer
Experiment: CONDOR: 18F-DCFPyL PET/CT correct localization rate, detection rate and PPV vs composite standard of truth
Format: in vivo, men
From the text: 1. Correct Localization Rate (CLR), defined as percentage of subjects with a one-to-one correspondence between localization of at least one lesion identified on ^18F-DCFPyL PET/CT imaging and the composite truth standard, defined as either evaluable histopathology, informative correlative imaging, or PSA response after radiation therapy.
Men ≥18 years of age with a rising PSA after definitive PCa therapy and negative or equivocal imaging were enrolled. […] The primary endpoint of this study was the correct localization rate (CLR). CLR is defined as the percentage of patients with a one-to-one correspondence between localization of at least one lesion identified by ^18F-DCFPyL PET/CT and a composite standard of truth (SOT). SOT was determined by two central readers and included either histopathology or another standard imaging modality (i.e., fluciclovine-PET/CT, CT/MRI, bone scan) or alternatively, by a post-treatment PSA change for irradiated lesions.
Methods: Men ≥18 years—with rising PSA after definitive therapy and negative or equivocal standard of care imaging (e.g., CT/MRI, bone scintigraphy) were enrolled. A single 9 mCi (333 MBq)±20% dose of PyL was injected, followed by PET/CT 1-2 hours later. Primary endpoint was correct localization rate (CLR), defined as percentage of pts with a 1:1 correspondence between at least one lesion identified by PyL-PET/CT and the composite standard of truth: pathology, correlative imaging, or PSA response. […] The secondary endpoint, impact of PyL-PET/CT on clinical management of pts was based on the treating physician's documented clinical plans before and after PyL-PET/CT.
Men with a PSA ≥0.2 ng/mL after surgery or ≥2 ng/mL above the nadir after radiation therapy were eligible for enrollment. The primary endpoint was the correct localization rate (CLR) defined as positive predictive value with an additional requirement of anatomical lesion colocalization between ^18F-DCFPyL-PET/CT and a composite standard of truth (SOT). The SOT consisted of, in descending priority: 1) histopathology, 2) correlative imaging findings determined by two central readers, or 3) post-radiation PSA response. […] The impact of ^18F-DCFPyL-PET/CT as defined by change in management intent, and safety were evaluated as secondary endpoints.
Patients voided prior to imaging, and PET and non-contrast CT images were acquired from the mid-thigh through the skull vertex. All ^18F-DCFPyL-PET/CT scans were submitted to the central imaging core laboratory for assessment. Patients with positive ^18F-DCFPyL-PET/CT scans based on local interpretation were scheduled for post-^18F-DCFPyL-PET/CT follow-up to verify suspected lesion(s) based on a composite standard of truth (SOT). (FIG. 16)
Because of the expected absence of an amenable lesion for histologic verification in all patients, a composite SOT was employed based on assessment performed or initiated within 60 days following ^18F-DCFPyL-PET/CT. These reference standards were defined (in descending priority) as (1) evaluable histopathology results from prostatectomy, salvage pelvic lymph node dissection or biopsy; (2) imaging findings using ^18F-fluciclovine or ^11C-choline PET, or focused MRI or CT; or (3) if neither of the above was available or informative, confirmed PSA response up to 9 months post-radiation initiation (with no concomitant ADT) of all PET-positive foci. PSA response was defined as PSA decline by ≥50% from baseline that was confirmed on repeat measurement within 4 weeks, based on central laboratory results.
A central imaging core laboratory was employed to independently manage image handling, reader training, reader sessions and data collection. […] The readers had no access to any clinical information, including PSA values or other imaging available for a patient. […]

[1] = SOT Correlative imaging n=100, Reader 1
[2] = SOT Correlative imaging n=100, Reader 2

O=C(O)CC[C@H](NC(=O)N[C@@H](CCCCNC(=O)c1ccc([18F])nc1)C(=O)O)C(=O)O [18F-DCFPyL, 2-(3-{1-carboxy-5-[(6-[^18F]fluoro-pyridine-3-carbonyl)-amino]-pentyl}ureido)-pentanedioic acid]
pts with PSMA-avid lesion(s), local radiology assessment (142/208): 69.3%
PPV by anatomic region (Extra-pelvic, Reader 1 (CONDOR Reader 4 in Table 17)): 33 (67.3) %
PPV by anatomic region (Extra-pelvic, Reader 1 (CONDOR Reader 4 in Table 17), listed as PyLARIFY): 67%
PPV by anatomic region (Extra-pelvic, Reader 2 (CONDOR Reader 5 in Table 17)): 31 (67.4) %
PPV by anatomic region (Extra-pelvic, Reader 2 (CONDOR Reader 5 in Table 17), listed as PyLARIFY): 67%
PPV by anatomic region (Extra-pelvic, Reader 3 (CONDOR Reader 6 in Table 17)): 30 (69.8) %
PPV by anatomic region (Extra-pelvic, Reader 3 (CONDOR Reader 6 in Table 17), listed as PyLARIFY): 70%
CLR by baseline PSA (PSA 0.5-<1.0 ng/mL, Reader 1): 12 (75.0) %
Detection rate by baseline PSA (PSA 0.5-<1.0 ng/mL, Reader 1): 21 (56.8) %
CLR by baseline PSA (PSA 0.5-<1.0 ng/mL, Reader 2): 10 (76.9) %
Detection rate by baseline PSA (PSA 0.5-<1.0 ng/mL, Reader 2): 45.9%
CLR by baseline PSA (PSA 0.5-<1.0 ng/mL, Reader 3): 11 (73.3) %
Detection rate by baseline PSA (PSA 0.5-<1.0 ng/mL, Reader 3): 19 (51.4) %
CLR by baseline PSA (PSA 1.0-<2.0 ng/mL, Reader 1): 17 (85.0) %
Detection rate by baseline PSA (PSA 1.0-<2.0 ng/mL, Reader 1): 24 (72.7) %
CLR by baseline PSA (PSA 1.0-<2.0 ng/mL, Reader 2): 14 (77.8) %
Detection rate by baseline PSA (PSA 1.0-<2.0 ng/mL, Reader 2): 22 (66.7) %
CLR by baseline PSA (PSA 1.0-<2.0 ng/mL, Reader 3): 15 (83.3) %
Detection rate by baseline PSA (PSA 1.0-<2.0 ng/mL, Reader 3): 19 (57.6) %
CLR by baseline PSA (PSA 2.0 < 5.0 ng/mL, Reader 1): 21 (91.3) %
Detection rate by baseline PSA (PSA 2.0 < 5.0 ng/mL, Reader 1): 28 (84.8) %
CLR by baseline PSA (PSA 2.0 < 5.0 ng/mL, Reader 2): 24 (92.3) %
Detection rate by baseline PSA (PSA 2.0 < 5.0 ng/mL, Reader 2): 29 (87.9) %
CLR by baseline PSA (PSA 2.0 < 5.0 ng/mL, Reader 3): 20 (90.9) %
Detection rate by baseline PSA (PSA 2.0 < 5.0 ng/mL, Reader 3): 27 (81.8) %
CLR by baseline PSA (PSA <0.5 ng/mL, Reader 1): 11 (73.3) %
Detection rate by baseline PSA (PSA <0.5 ng/mL, Reader 1): 29 (42.0) %
CLR by baseline PSA (PSA <0.5 ng/mL, Reader 2): 76.9%
Detection rate by baseline PSA (PSA <0.5 ng/mL, Reader 2): 23 (33.3) %
CLR by baseline PSA (PSA <0.5 ng/mL, Reader 3): 11 (73.3) %
Detection rate by baseline PSA (PSA <0.5 ng/mL, Reader 3): 25 (36.2) %
CLR by baseline PSA (PSA ≥5 ng/mL, Reader 1): 27 (96.4) %
Detection rate by baseline PSA (PSA ≥5 ng/mL, Reader 1): 29 (96.7) %
CLR by baseline PSA (PSA ≥5 ng/mL, Reader 2): 28 (96.6) %
Detection rate by baseline PSA (PSA ≥5 ng/mL, Reader 2): 29 (96.7) %
CLR by baseline PSA (PSA ≥5 ng/mL, Reader 3): 26 (96.3) %
Detection rate by baseline PSA (PSA ≥5 ng/mL, Reader 3): 27 (90.0) %
PPV by anatomic region (Pelvic, Reader 1 (CONDOR Reader 4 in Table 17)): 41 (67.2) %
PPV by anatomic region (Pelvic, Reader 1 (CONDOR Reader 4 in Table 17), listed as PyLARIFY): 67%
PPV by anatomic region (Pelvic, Reader 2 (CONDOR Reader 5 in Table 17)): 40 (72.7) %
PPV by anatomic region (Pelvic, Reader 2 (CONDOR Reader 5 in Table 17), listed as PyLARIFY): 73%
PPV by anatomic region (Pelvic, Reader 3 (CONDOR Reader 6 in Table 17)): 39 (70.9) %
PPV by anatomic region (Pelvic, Reader 3 (CONDOR Reader 6 in Table 17), listed as PyLARIFY): 71%
PPV by anatomic region (Prostatic (prostate bed), Reader 1 (CONDOR Reader 4 in Table 17), listed as PyLARIFY): 80%
PPV by anatomic region (Prostatic (prostate bed), Reader 2 (CONDOR Reader 5 in Table 17)): 30 (83.3) %
PPV by anatomic region (Prostatic (prostate bed), Reader 2 (CONDOR Reader 5 in Table 17), listed as PyLARIFY): 83%
PPV by anatomic region (Prostatic (prostate bed), Reader 3 (CONDOR Reader 6 in Table 17)): 27 (75.0) %
PPV by anatomic region (Prostatic (prostate bed), Reader 3 (CONDOR Reader 6 in Table 17), listed as PyLARIFY): 75%
CLR (TP/TP + FP) (SOT CT n=6, Reader 1): (80.0%)
Negative PyL Scan (SOT CT n=6, Reader 1): (16.7%)
Positive PyL Scan (SOT CT n=6, Reader 1): (83.3%)
CLR (TP/TP + FP) (SOT CT n=6, Reader 2): (100.0%)
Negative PyL Scan (SOT CT n=6, Reader 2): (16.7%)
Positive PyL Scan (SOT CT n=6, Reader 2): (83.3%)
CLR (TP/TP + FP) (SOT CT n=6, Reader 3): (80.0%)
Negative PyL Scan (SOT CT n=6, Reader 3): (16.7%)
Positive PyL Scan (SOT CT n=6, Reader 3): (83.3%)
CLR (TP/TP + FP) [1]: (88.0%)
Negative PyL Scan [1]: (18.0%)
PPV (TP/TP + FP) [1]: (89.0%)
Positive PyL Scan [1]: (82.0%)
CLR (TP/TP + FP) [2]: (88.6%)
Negative PyL Scan [2]: (24.0%)
PPV (TP/TP + FP) [2]: (89.5%)
Positive PyL Scan [2]: (76.0%)
